One assay addresses T1, recombinant human GST-SYK (Homo sapiens, UniProt P43405).
T1 construct: purchased Carna Biosciences 08-176
As to the kind of experiment: Homogeneous Time-Resolved Fluorescence (HTRF) assay for the recombinant human Syk enzyme. The class given is biochemical. The note with it: HTRF assay, recombinant human GST-SYK; IC50 given as class symbols; read-out: rhSYK Activity. The procedure, abridged: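 Phosphotyrosine product from a biotinylated Syk substrate peptide was detected by HTRF (europium antibody/SA-APC, read after 30 min) following a 45-minute room-temperature reaction at 25 μM ATP, with […] preincubated 10 minutes with inhibitor.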
As to `CCCCOC(=O)[C@H]1CC[C@H](C(C)(O)c2ccc(-c3cc(C)cc(Nc4nccc(OC)n4)c3)cn2)CC1` (relative stereo) [Example 9.49, butyl trans-4-[1-hydroxy-1-(5-{3-[(4-methoxypyrimidin-2-yl)amino]-5-methylphenyl}pyridin-2-yl)ethyl]cyclohexanecarboxylate], the IC50 is less than 100 nM.
On the same count and under the same terms, the figure for `CCC(C)(Nc1ccc(-c2cc(C)cc(Nc3nccc(C(F)(F)F)n3)c2)cn1)C(=O)O` (stereo not shown) [Example 18.6] is less than 100 nM; for `Cc1cc(Nc2nccc(C(F)(F)F)n2)cc(-c2ccnc(N3CC(O)C3)c2)c1` [Example 15.53, 1-[4-(3-methyl-5-{[4-(trifluoromethyl)pyrimidin-2-yl]amino}phenyl)pyridin-2-yl] azetidin-3-ol] it is less than 100 nM; for `Cc1cc(Nc2nccc(C(F)(F)F)n2)cc(-c2ccc(N[C@H](C)C(=O)O)nc2)c1` [Example 7.154, N-[5-(3-methyl-5-{[4-(trifluoromethyl)pyrimidin-2-yl]amino}phenyl)pyridin-2-yl]-D-alanine] it is less than 100 nM.
The same measure, in the same setting: under `Cc1cc(Nc2nccc(C(F)(F)F)n2)cc(-c2ccc(N3CC(C)NC(C)C3)nc2)c1` (stereo not shown) [Example 7.58, N-{3-[6-(3,5-dimethylpiperazin-1-yl)pyridin-3-yl]-5-methylphenyl}-4-(trifluoromethyl)pyrimidin-2-amine] stands less than 100 nM.
The same measure, in the same setting: the figure for `Cc1cc(Nc2nccc(C(F)(F)F)n2)cc(-c2ccc(N3CCN(S(C)(=O)=O)CC3)nc2)c1` [Example 7.48, N-(3-methyl-5-{6-[4-(methylsulfonyl)piperazin-1-yl]pyridin-3-yl}phenyl)-4-(trifluoromethyl)pyrimidin-2-amine] is 100 to 1000 nM.
Regarding `Cc1cc(Nc2nccc(C(F)(F)F)n2)cc(-c2cncc(C(=O)NCC(O)CO)c2)c1` (stereo not shown) [Example 15.90, N-(2,3-dihydroxypropyl)-5-(3-methyl-5-{[4-(trifluoromethyl)pyrimidin-2-yl]amino}phenyl)pyridine-3-carboxamide], the IC50 is less than 100 nM.
The same measure, in the same setting: under `Cc1cc(Nc2nccc(C(F)(F)F)n2)cc(-c2ccc(NCCN)nc2)c1` [Example 7.25A, N-[5-(3-methyl-5-{[4-(trifluoromethyl)pyrimidin-2-yl]amino}phenyl)pyridin-2-yl]ethane-1,2-diamine] stands less than 100 nM.
On the same count and under the same terms, the figure for `Cc1cc(Nc2nccc(C(F)(F)F)n2)cc(-c2cnc(N(C)C)c(C(=O)O)c2)c1` [Example 2.72, 2-(dimethylamino)-5-(3-methyl-5-{[4-(trifluoromethyl)pyrimidin-2-yl]amino}phenyl)pyridine-3-carboxylic acid] is less than 100 nM; for `Cc1cc(Nc2nccc(C3CC3)n2)cc(-c2ccc(C(C)(O)[C@H]3CC[C@H](C(=O)O)CC3)nc2)c1` (stereo partly drawn) [Example 9.24, trans-4-[1-(5-{3-[(4-cyclopropylpyrimidin-2-yl)amino]-5-methylphenyl}pyridin-2-yl)-1-hydroxyethyl]cyclohexanecarboxylic acid] it is less than 100 nM.
Still for that read-out and setting: under `Cc1cc(Nc2nccc(C(F)(F)F)n2)cc(-c2ccc(N3CC(O)C3)nc2)c1` [Example 7.36, 1-[5-(3-methyl-5-{[4-(trifluoromethyl)pyrimidin-2-yl]amino}phenyl)pyridin-2-yl]azetidin-3-ol] stands less than 100 nM; under `CC(=O)Nc1cc(Nc2nccc(C(F)(F)F)n2)cc(-c2ccc(NC(C)(C)C(=O)O)nc2)c1` [Example 7.1, N-{5-[3-(acetylamino)-5-{[4-(trifluoromethyl)pyrimidin-2-yl]amino}phenyl]pyridin-2-yl}-2-methylalanine], less than 100 nM; under `Cc1cc(Nc2nccc(C(F)(F)F)n2)cc(-c2ccc(C(=O)NC3(CO)CC3)nc2)c1` [Example 16.8, N-[1-(hydroxymethyl)cyclopropyl]-5-(3-methyl-5-{[4-(trifluoromethyl)pyrimidin-2-yl]amino}phenyl)pyridine-2-carboxamide], 100 to 1000 nM.
In the case of `CCNC(=O)Nc1cc(Nc2nccc(C(F)(F)F)n2)cc(-c2ccc(C(=O)O)nc2)c1` [Example 6.6, 5-(3-[(ethylcarbamoyl)amino]-5-{[4-(trifluoromethyl)pyrimidin-2-yl]amino}phenyl)pyridine-2-carboxylic acid], the IC50 was less than 100 nM.
The same measure, in the same setting: the figure for `Cc1cc(Nc2nccc(C(F)(F)F)n2)cc(-c2ccc(C3(O)CCC(C(=O)O)C(C)(C)C3)nc2)c1` (stereo not shown) [Example 9.46, 4-hydroxy-2,2-dimethyl-4-[5-(3-methyl-5-{[4-(trifluoromethyl)pyrimidin-2-yl]amino}phenyl)pyridin-2-yl]cyclohexanecarboxylic acid] is less than 100 nM; for `C=C(F)CNC(=O)c1ccc(-c2cc(C)cc(Nc3nccc(C(F)(F)F)n3)c2)cn1` [Example 16.28, N-(2-fluoroprop-2-en-1-yl)-5-(3-methyl-5-{[4-(trifluoromethyl)pyrimidin-2-yl]amino}phenyl)pyridine-2-carboxamide] it is 100 to 1000 nM.
On to `Cc1cc(Nc2nccc(C(F)(F)F)n2)cc(-c2ccc(N3CCC[C@@H]3C(=O)O)nc2)c1` [Example 7.110, 1-[5-(3-methyl-5-{[4-(trifluoromethyl)pyrimidin-2-yl]amino}phenyl)pyridin-2-yl]-D-prolilne], for which the IC50 is less than 100 nM.
For the molecule `Cc1cc(Nc2nccc(C(F)(F)F)n2)cc(-c2ccnc(Br)c2)c1` [Example 2.127, N-[3-(2-bromopyridin-4-yl)-5-methylphenyl]-4-(trifluoromethyl)pyrimidin-2-amine], the IC50 lay within 100 to 1000 nM.
On the same count and under the same terms, under `Cc1cc(Nc2nccc(C(F)(F)F)n2)cc(-c2cccnc2F)c1` [Example 2.45, N-[3-(2-fluoropyridin-3-yl)-5-methylphenyl]-4-(trifluoromethyl)pyrimidin-2-amine] stands less than 100 nM.
The same measure, in the same setting: under `Cc1cc(Nc2nccc(C3CC3)n2)cc(-c2cncc(C(O)(CO)CO)c2)c1` [Example 9.74, 2-(5-{3-[(4-cyclopropylpyrimidin-2-yl)amino]-5-methylphenyl}pyridin-3-yl)propane-1,2,3-triol] stands 1000 to 10000 nM.
Still for that read-out and setting: the figure for `CC(=O)NCCNc1cc(-c2cc(C)cc(Nc3nccc(C(F)(F)F)n3)c2)ccn1` [Example 15.54, N-(2-{[4-(3-methyl-5-{[4-(trifluoromethyl)pyrimidin-2-yl]amino}phenyl)pyridin-2-yl]amino}ethyl)acetamide] is less than 100 nM.
On to `Cc1cc(Nc2nccc(C(F)(F)F)n2)cc(-c2ccc(N[C@H](Cc3c[nH]cn3)C(=O)O)nc2)c1` [Example 7.73, N-[5-(3-methyl-5-{[4-(trifluoromethyl)pyrimidin-2-yl]amino}phenyl)pyridin-2-yl]-D-histidine], for which the IC50 was less than 100 nM.
Still for that read-out and setting: under `Cc1cc(Nc2nccc(C(F)(F)F)n2)cc(-c2ccc(N[C@H](C)C(=O)O)nc2)c1` [Example 7.89, N-[5-(3-methyl-5-{[4-(trifluoromethyl)pyrimidin-2-yl]amino}phenyl)pyridin-2-yl]-D-alanine] stands less than 100 nM; under `Cc1cc(Nc2nccc(C(F)(F)F)n2)cc(-c2ccc(NC3CCNC3=O)nc2)c1` (stereo not shown) [Example 7.22, 3-{[5-(3-methyl-5-{[4-(trifluoromethyl)pyrimidin-2-yl]amino}phenyl)pyridin-2-yl]amino}pyrrolidin-2-one], less than 100 nM.

The assay is the same for the next values; noted with them: recombinant GST-hSYK, 25 μM ATP, HTRF; read-out: IC50 (inhibition of human Syk activity).
For `CC(=O)Nc1cc(Nc2nccc(C(F)(F)F)n2)cc(-c2ccc(NC(C)(C)C(=O)O)nc2)c1` [Example 7.1, N-{5-[3-(acetylamino)-5-{[4-(trifluoromethyl)pyrimidin-2-yl]amino}phenyl]pyridin-2-yl}-2-methylalanine], the IC50 was 3.9 nM.

The values are drawn from patent US9376418B2, “Substituted pyridine spleen tyrosine kinase (SYK) inhibitors” (Merck Sharp & Dohme Corp., priority 2012, dated 2016).
